Assay results taken from patent US20220347309A1, “PYRROLOBENZODIAZEPINE RESISTANCE” (ADC THERAPEUTICS SA, priority 2018, published 2022).
Read-outs that look alike come from different tables or passages of the source.

Tests used:
NCI-N87 PBDr cells = assay: Drug transporter inhibitor combination growth inhibition (MTS); format: cell-based, human; details: for response to ADCT-502: MK-571 (5 μM) or FTC (10 μM) for 24 hours before ADC
Description: (§1) Cells were seeded at 10,000 cells per well in a flat bottom 96-well plate, and NCI-N87 cell were incubated overnight to allow for cell attachment.
(§2) For ADC growth inhibition assays, cells were then incubated with serial dilutions of ADCT-301 or ADCT-502 in triplicate.
(§3) Growth inhibition was measured after 96 hours in Karpas-299 cells and 144 hours in NCI-N87 cells using the CellTiter 96 AQueous One MTS Solution (Promega) and absorbance measured on a Multiskan Ascent plate reader (ThermoFisher) at 492 nm.
(§4) Growth inhibition was calculated as a percentage of absorbance compared to an untreated control, and IC50 values were calculated using the sigmoidal, 4PL, X is log(concentration) equation in GraphPad Prism.
(§5) For drug transporter inhibitor combination cytotox, the resistant cell lines were incubated overnight with either 5 μM MK-571 (ABCC2 inhibitor), 10 μM FTC (ABCG2 inhibitor), 5 μM Reversin-121 ([…]) overnight before carrying out the ADC or PBD growth inhibition assay as previously described.

NCI-N87 ADCr cells = assay: as above; format: cell-based, human; details: for response to ADCT-502: MK-571 (5 μM) or FTC (10 μM) for 24 hours before ADC
Description: as §1, §2, §3, §4, §5

Karpas-299 PBDr cells = assay: as above; format: cell-based, human; details: for re-sensitisation to ADCT-301 treatment: MK-571 (5 μM) or FTC (10 μM) for 24 hours before ADC
Description: (§6) The in vitro cytotoxicity assay (MTS) was carried out as previously described.
as §1, §2, §3
(§7) Growth inhibition was calculated as a percentage of absorbance compared to an untreated control, and IC50 values were calculated using the sigmoidal, 4PL, X is log(concentration) equation in GraphPad Prism. […]

Karpas-299 ADCr cells = assay: as above; format: cell-based, human; details: for re-sensitisation to ADCT-301 treatment: MK-571 (5 μM) or FTC (10 μM) for 24 hours before ADC
Description: as §6, §1, §2, §3, §7

[1] = tested on: NCI-N87 PBDr cells (SG3199 acquired resistant); assay: MTS in vitro cytotoxicity, 144 h continuous exposure; format: cell-based, human; details: for cross-resistance (MTS growth inhibition compared to the parental cell line): NCI-N87 PBDr vs parental
Description: (§13) To generate a resistant population to either ADCT-502 or SG3199, human gastric cancer NCI-N87 cells (expressing HER2) were incubated with an approximate IC50 dose of the drug for 144 hours. The cells were then washed and returned to fresh medium until normal cell growth was recovered. This process was repeated until a measurable and stable loss in cytotoxic efficacy was established using the MTS assay.
(§14) To measure the in vitro cytotoxicity with the MTS assay, cells were incubated with a 10-fold dilution range of ADCT-502 or SG3199, and incubated with continuous exposure for 144 hours (at least three cell doubling times under normal cell culture conditions). After incubation the CellTiter 960 AQueous One Solution Cell Proliferation Assay (MTS) was used to measure growth inhibition, by adding 20 μl reagent to the cells and incubating for 3-4 hours, then reading the absorbance at 492 nm. Mean % growth of the ADC or PBD treated cells was calculated relative to an untreated control.
(§15) To measure the cross-resistance of the NCI-N87 ADCR cells to the SG3199 PBD warhead, and the PBDR cells to ADCT-502, the in vitro cytotoxicity assay was carried out as described above, treating the cells with the opposite drug molecule to the one with which they were generated.

[2] = tested on: NCI-N87 ADCr cells (ADCT-502 acquired resistant); assay: as above; format: cell-based, human; details: for cross-resistance (MTS growth inhibition compared to the parental cell line): NCI-N87 ADCr vs parental
Description: as §13, §14, §15

[3] = tested on: Karpas PBDr cells (SG3199 acquired resistant Karpas-299); assay: MTS in vitro cytotoxicity, 96 h continuous exposure
Description: (§8) To generate a resistant population to either ADCT-301 or SG3199, human anaplastic large cell lymphoma Karpas-299 cells (expressing CD25) were incubated with an approximate IC50 dose of the drug for 96 hours. The cells were then washed and returned to fresh medium until normal cell growth was recovered. This process was repeated until a measurable and stable loss in cytotoxic efficacy was established using the MTS assay.
(§9) To measure the in vitro cytotoxicity with the MTS assay, cells were incubated with a 10-fold dilution range of ADCT-301 or SG3199, and incubated with continuous exposure for 96 hours (at least three cell doubling times under normal cell culture conditions). After incubation the […] AQueous One Solution Cell Proliferation Assay (MTS) was used to measure growth inhibition, by adding 20 μl reagent to the cells and incubating for 3-4 hours, then reading the absorbance at 492 nm. Mean % growth of the ADC or PBD treated cells was calculated relative to an untreated control.
(§10) To measure the cross-resistance of the Karpas ADCR cells to the SG3199 PBD warhead, and the PBDR cells to ADCT-301, the in vitro cytotoxicity assay was carried out as described above, treating the cells with the opposite drug molecule to the one with which they were generated.
(§11) To measure the cross-resistance of the Karpas ADCR and PBDR cells to the PBD dimer warhead SG2000, the in vitro cytotoxicity (MTS) assay was carried out as previously described in Example 2.

[4] = tested on: Karpas ADCr cells (ADCT-301 acquired resistant Karpas-299); assay: as above
Description: as §8, §9, §10, §11

[5] = target: T1, CD25 on Karpas-299 PBDR cells (Homo sapiens, UniProt P01589); assay: CD25 antibody binding, flow cytometry; details: Karpas-299 PBDR vs wt, 1 hour on ice
T1 construct: endogenous in cells; host or cells: Karpas-299 acquired-resistant sublines (ADCR: selected with ADCT-301; PBDR: selected with SG3199)
T1 sequence (P01589 22-272): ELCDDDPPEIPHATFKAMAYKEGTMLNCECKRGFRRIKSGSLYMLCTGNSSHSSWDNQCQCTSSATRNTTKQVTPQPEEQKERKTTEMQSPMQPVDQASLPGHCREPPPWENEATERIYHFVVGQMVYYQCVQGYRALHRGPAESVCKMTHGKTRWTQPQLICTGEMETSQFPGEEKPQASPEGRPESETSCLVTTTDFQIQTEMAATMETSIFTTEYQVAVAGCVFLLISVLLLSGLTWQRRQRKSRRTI
Description: (§12) Karpas wt and acquired resistant cells were blocked at 4° C. for 30 mins before being incubated with a serial dilution series of HuMax-TAC mAb for 1 hour on ice. The cells were then washed and incubated with a F(ab′)2-Goat anti-Human IgG Fc Secondary Antibody conjugated to Alexa Fluor 488. After incubation for 1 hour on ice in the dark the cells were washed and run on a Fortessa X20 flow cytometer, and the mean fluorescence intensity (MFI) determined using the B530/30 laser/filter. […] In NCI-N87 cell lines there was a small decrease in MFI reached by the PBDr cell line, but the ADCr cell line was unchanged compared to the parental line (data not shown). However all cells continued to express high levels of antigen.

[6] = target: T2, CD25 on Karpas-299 ADCR cells (Homo sapiens, UniProt P01589); assay: CD25 antibody binding, flow cytometry; details: Karpas-299 ADCR vs wt, 1 hour on ice
T2 construct: endogenous in cells; host or cells: Karpas-299 acquired-resistant sublines (ADCR: selected with ADCT-301; PBDR: selected with SG3199)
T2 sequence (P01589 22-272): T1 sequence (P01589 22-272)
Description: as §12

NCI-N87 wt cells = assay: MTS in vitro cytotoxicity, 144 h continuous exposure; format: cell-based, human; details: Homo sapiens, NCI-N87, 144 h, read-out: IC50 pM
Description: as §13, §14, §15

Karpas-299 wt cells = assay: MTS in vitro cytotoxicity, 96 h continuous exposure; format: cell-based; details: Homo sapiens, KARPAS-299, read-out: IC50 nM
Description: To measure the in vitro cytotoxicity with the MTS assay, cells were incubated with a 10-fold dilution range of ADCT-301 or SG3199, and incubated with continuous exposure for 96 hours (at least three cell doubling times under normal cell culture conditions). After incubation the CellTiter 960 AQueous One Solution Cell Proliferation Assay (MTS) was used to measure growth inhibition, by adding 20 μl reagent to the cells and incubating for 3-4 hours, then reading the absorbance at 492 nm. Mean % growth of the ADC or PBD treated cells was calculated relative to an untreated control.

[7] = Homo sapiens, NCI-N87, 144 h, read-out: IC50 pM
[8] = Homo sapiens, KARPAS-299, read-out: IC50 nM

CN(C)C(=O)CCSC(SCCC(=O)[O-])c1cccc(/C=C/c2ccc3ccc(Cl)cc3n2)c1.[Na+] (stereo not drawn) [MK-571]
response to ADCT-502 (NCI-N87 PBDr cells): restored to the level of the parental cell line | response to ADCT-502 (NCI-N87 ADCr cells): restored to the level of the parental cell line | reversal of acquired resistance to ADCT-301 (Karpas-299 PBDr cells; Karpas PBDr, 50 μM MK-571, 96-hour continuous exposure to ADCT-301): partially reverse the resistance | re-sensitisation to ADCT-301 treatment (Karpas-299 PBDr cells; Karpas-299 PBDr): dramatic re-sensitisation | reversal of acquired resistance to ADCT-301 (Karpas-299 ADCr cells; Karpas ADCr, 50 μM MK-571, 96-hour continuous exposure to ADCT-301): partially reverse the resistance | re-sensitisation to ADCT-301 treatment (Karpas-299 ADCr cells; Karpas-299 ADCr): dramatic re-sensitisation

N[C@@H](Cc1ccc(N(CCCl)CCCl)cc1)C(=O)O [melphalan]
cross-resistance (MTS growth inhibition compared to the parental cell line) [1]: decrease in growth inhibition | cross-resistance (MTS growth inhibition compared to the parental cell line) [2]: decrease in growth inhibition | cross-resistance (MTS cytotoxic sensitivity compared to wt cells) ([3]; Karpas PBDr vs wt/parental): No cross-resistance | cross-resistance (MTS cytotoxic sensitivity compared to wt cells) ([4]; Karpas ADCr vs wt/parental): No cross-resistance

HuMax-TAC: fully human monoclonal IgG1,K antibody, VH SEQ ID NO. 1 and VL SEQ ID NO. 2; binds CD25
MFI of antibody binding compared to wildtype [5]: identical to wildtype cells | peak MFI of antibody binding compared to wildtype [6]: small decrease in peak MFI

COc1cccc2c1C(=O)c1c(O)c3c(c(O)c1C2=O)C[C@@](O)(C(=O)CO)C[C@@H]3O[C@H]1C[C@H](N)[C@H](O)[C@H](C)O1 [doxorubicin]
cross-resistance (MTS growth inhibition compared to the parental cell line) [1]: decrease in growth inhibition | cross-resistance (MTS growth inhibition compared to the parental cell line) [2]: decrease in growth inhibition | cross-resistance (MTS cytotoxic sensitivity compared to wt cells) [3]: No cross-resistance | cross-resistance (MTS cytotoxic sensitivity compared to wt cells) [4]: No cross-resistance

COc1ccc2c3c([nH]c2c1)[C@H](C=C(C)C)N1C(=O)[C@@H]2CCCN2C(=O)[C@@H]1C3 [FTC, Fumitremorgin C]
response to ADCT-502 (NCI-N87 PBDr cells): restored to the level of the parental cell line | response to ADCT-502 (NCI-N87 ADCr cells): restored to the level of the parental cell line | re-sensitisation to ADCT-301 treatment (Karpas-299 PBDr cells; Karpas-299 PBDr): dramatic re-sensitisation | re-sensitisation to ADCT-301 treatment (Karpas-299 ADCr cells; Karpas-299 ADCr): dramatic re-sensitisation

C=C1C[C@H]2C=Nc3cc(OCCCOc4cc5c(cc4OC)C(=O)N4CC(=C)C[C@H]4C=N5)c(OC)cc3C(=O)N2C1 [SG2000]
IC50 (NCI-N87 wt cells): 64 pM | IC50 (Karpas-299 wt cells): 0.9 nM | IC50 [1, 7]: 493 pM | fold resistance compared to wildtype ([1]; NCI-N87 PBDr vs NCI-N87 wt IC50): 7.7 fold | IC50 [2, 7]: 483 pM | fold resistance compared to wildtype ([2]; NCI-N87 ADCr vs NCI-N87 wt IC50): 7.5 fold | IC50 [3, 8]: 4.7 nM | fold resistance compared to wildtype ([3]; Karpas PBDr vs Karpas wt IC50): 5.2 fold | IC50 [4, 8]: 2.8 nM | fold resistance compared to wildtype ([4]; Karpas ADCr vs Karpas wt IC50): 3.1 fold

CC[C@H](C)C(=O)O[C@H]1C[C@@H](C)C=C2C=C[C@H](C)[C@H](CC[C@@H]3C[C@@H](O)CC(=O)O3)[C@H]21 [Lovastatin]
reversal of resistance by SLCO2B1 inhibitor (NCI-N87 PBDr cells; 5 μM Lovastatin with ADCT-502): failed to reverse the resistance | reversal of resistance by SLCO2B1 inhibitor (NCI-N87 ADCr cells; 5 μM Lovastatin with ADCT-502): failed to reverse the resistance | reversal of resistance by SLCO2B1 inhibitor (Karpas-299 PBDr cells; Karpas-299 PBDr, 10 nM Lovastatin with ADCT-301): failed to reverse the resistance | reversal of resistance by SLCO2B1 inhibitor (Karpas-299 ADCr cells; Karpas-299 ADCr, 10 nM Lovastatin with ADCT-301): failed to reverse the resistance

N.N.[Cl][Pt][Cl] [cisplatin]
cross-resistance (MTS growth inhibition compared to the parental cell line) [1]: decrease in growth inhibition | cross-resistance (MTS growth inhibition compared to the parental cell line) [2]: decrease in growth inhibition
